# Laboratory results: ChEMBL document CHEMBL2074172, “Possible involvement of multiple P-glycoprotein-mediated efflux systems in the transport of verapamil and other organic cations across rat intestine” (Pharm Res, 1995)
# Molecular target: Multidrug resistance protein 1a (Rattus norvegicus) (UniProt Q6PSM0)
# Experiment: TP_TRANSPORTER: serosal to mucosal transport in SD rat intestinal segment
# Format: functional
# Settings: Sprague-Dawley, Intestine
# Chain of Multidrug resistance protein 1a (Rattus norvegicus) (Q6PSM0 as listed by the source): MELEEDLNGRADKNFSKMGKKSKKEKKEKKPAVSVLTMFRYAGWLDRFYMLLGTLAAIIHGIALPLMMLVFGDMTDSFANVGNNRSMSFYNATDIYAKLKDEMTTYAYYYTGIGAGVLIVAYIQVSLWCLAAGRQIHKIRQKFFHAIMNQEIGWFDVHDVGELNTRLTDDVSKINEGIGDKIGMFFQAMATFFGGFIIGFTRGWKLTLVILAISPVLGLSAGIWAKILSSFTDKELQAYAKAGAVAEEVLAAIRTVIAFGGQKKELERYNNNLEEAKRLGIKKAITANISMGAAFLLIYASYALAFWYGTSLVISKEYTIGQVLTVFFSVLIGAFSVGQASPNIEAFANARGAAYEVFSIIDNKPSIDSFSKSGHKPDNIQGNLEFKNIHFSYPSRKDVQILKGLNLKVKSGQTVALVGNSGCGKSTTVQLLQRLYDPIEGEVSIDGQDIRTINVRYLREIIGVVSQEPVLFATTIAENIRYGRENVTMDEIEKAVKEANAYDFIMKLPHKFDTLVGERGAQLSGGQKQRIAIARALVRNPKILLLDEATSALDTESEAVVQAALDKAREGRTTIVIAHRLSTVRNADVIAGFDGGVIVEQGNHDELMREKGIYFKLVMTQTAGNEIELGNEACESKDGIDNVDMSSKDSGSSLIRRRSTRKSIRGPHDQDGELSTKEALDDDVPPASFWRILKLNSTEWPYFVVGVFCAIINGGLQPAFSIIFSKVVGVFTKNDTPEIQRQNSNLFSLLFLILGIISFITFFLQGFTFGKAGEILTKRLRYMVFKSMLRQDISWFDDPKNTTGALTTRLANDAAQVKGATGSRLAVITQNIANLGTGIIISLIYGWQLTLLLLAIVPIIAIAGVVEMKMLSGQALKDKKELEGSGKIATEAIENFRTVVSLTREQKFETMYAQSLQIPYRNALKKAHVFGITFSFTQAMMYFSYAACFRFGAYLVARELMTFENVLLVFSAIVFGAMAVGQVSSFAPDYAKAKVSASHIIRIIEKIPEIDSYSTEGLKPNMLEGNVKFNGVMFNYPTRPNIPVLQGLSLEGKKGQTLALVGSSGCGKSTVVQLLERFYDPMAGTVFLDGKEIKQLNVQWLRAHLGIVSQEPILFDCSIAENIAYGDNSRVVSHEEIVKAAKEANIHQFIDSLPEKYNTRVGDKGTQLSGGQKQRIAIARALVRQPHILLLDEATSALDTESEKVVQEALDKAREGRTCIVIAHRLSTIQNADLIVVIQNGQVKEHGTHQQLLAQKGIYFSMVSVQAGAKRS
row,Structure (SMILES),Activity
1,CC(C)[N+](C)(CCOC(=O)C1c2ccccc2Oc2ccccc21)C(C)C,substrate [+]
2,COc1ccc(CCN(C)CCCC(C#N)(c2ccc(OC)c(OC)c2)C(C)C)cc1OC (configuration not stated),substrate [+]
